Measured values as given in patent US20170189294A1, “Non-Irritating, Non-Whitening Photoprotective Compositions” (Eveready Battery Company, Inc., priority 2013, published 2017).

What was measured:
[1] = flame extension test; format: physicochemical; details: propellant
Protocol: In one embodiment, the photoprotective composition concentrate and propellant are added to an aerosol container in a ratio of about 70:30 to about 60:40. The tetraflouroethane and difluoroethane propellants were tested and are non-flammable in view of the flame extension test.
In another embodiment, the photoprotective composition concentrate and propellant are added to an aerosol container in a ratio of about 70:30. The tetraflouroethane and isobutene propellants were evaluated to determine what blends of tetraflouroethane and isobutene propellants would provide a non-flammable product at a reasonable cost. […] In some embodiments having a photoprotective composition comprising a concentrate and at least one propellant, the ratio of the photoprotective composition and the propellant can be between about 2.5:1 and about 1.25:1.

[2] = solubility/compatibility and stability observations in the compositions; format: physicochemical; details: three (3) months at 40° C.
Text: With regard to the photoprotective compositions of the present disclosure, it was observed that high levels of isohexadecane, especially those of about 70 wt. %, limited the solubility and/or compatibility of other ingredients which cause undesirable characteristics within the entire photoprotective composition such as, i.e., hazing, oily segregation, and/or precipitation from the composition, and combinations thereof. […] Dimethicone with a viscosity of about 350 cst at a 1 wt. % concentration, for example, causes hazing.

| storage stability [2] | Structure (SMILES) | flammability [1] |
| --- | --- | --- |
| – | CC(F)F [difluoroethane, 1,1-difluoroethane] | non-flammable |
| – | FCC(F)(F)F [tetraflouroethane] | non-flammable |
| crystals appeared | COc1ccc(C(=O)CC(=O)c2ccc(C(C)(C)C)cc2)cc1 [avobenzone] | – |
